Test system: MOLM-13 cells
Assay: Caspase cleavage assay (Caspase3, 7 activation)
Assay type: cell-based
Conditions: Homo sapiens, 16 h treatment, caspase substrate Z-DEVD-R110, read-out: c* Concentration at which 50% of the maximum signal was achieved (caspase activation)
Description: Caspase3, 7 Activation. MOLM-13 cells (30,000 cells/well) were plated in black 96-well plates (Corning Cat. #3603) in 40 μL of RPMI media, and left in an incubator (37° C., 5% CO2) for up to 24 h. Cells were treated for 16 h with compounds or DMSO (control) at desired concentrations in 50 μL of media. Drugs were added in triplicate wells. Following exposure of cells to Hsp70 inhibitors, 50 μL of buffer containing 10 mM HEPES (pH 7.5), 2 mM EDTA, 0.1% CHAPS and the caspase substrate Z-DEVD-R110 at 25 μM was added to each well. Plates were incubated until the signal stabilized and then the fluorescence signal of each well was measured in an Analyst GT microplate reader. The percentage increase in apoptotic cells was calculated by comparison of the fluorescence reading obtained from treated versus control cells.

SMILES	EC50
[2H]c1c([2H])c([2H])c(COc2nc(N3CCN(C)CC3)ncc2Sc2ccc(C(N)=O)cc2)c([2H])c1[2H] [100t, 4-((4-(Benzyloxy-d5)-2-(4-methylpiperazin-1-yl)pyrimidin-5-yl)thio)benzamide]	400 to 1000 nM
CN(C)[C@@H]1CCN(c2ncc(Sc3ccc(C(N)=O)cc3)c(OCc3ccccc3)n2)C1 [compound 207, (R)-4-((4-(Benzyloxy)-2-(3-(dimethylamino)pyrrolidin-1-yl)pyrimidin-5-yl)thio)benzamide]	400 to 1000 nM
CN(C)c1cccc(COc2nc(N3CCN(C4CC4)CC3)ncc2Sc2ccc(C(N)=O)c(C(F)(F)F)c2)c1 [compound 341, 4-((2-(4-Cyclopropylpiperazin-1-yl)-4-((3-(dimethylamino)benzyl)oxy)pyrimidin-5-yl)thio)-2-(trifluoromethyl)benzamide]	≥ 1200 nM
[2H]C([2H])(Oc1nc(N2CCN(C)CC2)ncc1Sc1ccc(C(N)=O)cc1)c1ccccc1 [100u, 4-((4-(Benzyloxy-d2)-2-(4-methylpiperazin-1-yl)pyrimidin-5-yl)thio)benzamide]	400 to 1000 nM
CN1CCN(c2ncc(Sc3ccc(C(N)=O)c(Cl)c3)c(OCc3ccc(F)c(O)c3)n2)CC1 [compound 127, 2-Chloro-4-((4-((4-fluoro-3-hydroxybenzyl)oxy)-2-(4-methylpiperazin-1-yl)pyrimidin-5-yl)thio)benzamide]	400 to 1000 nM
CN1CCN(c2ncc(Sc3ccc(C(=O)O)cc3)c(OCc3ccccc3)n2)CC1 [compound 81, 4-((4-(Benzyloxy)-2-(4-methylpiperazin-1-yl)pyrimidin-5-yl)thio)benzoic acid]	1000 to 1200 nM
CN1CCN(c2ncc(Sc3cccnc3N)c(OCc3ccccc3)n2)CC1 [compound 13, 3-((4-(Benzyloxy)-2-(4-methylpiperazin-1-yl)pyrimidin-5-yl)thio)pyridin-2-amine]	400 to 1000 nM
CN1CCN(c2ncc(Sc3ccc(C(=O)NCN4CCCC4)cc3)c(OCc3ccccc3)n2)CC1 [compound 92, 4-((4-(Benzyloxy)-2-(4-methylpiperazin-1-yl)pyrimidin-5-yl)thio)-N-(pyrrolidin-1-ylmethyl)benzamide]	400 to 1000 nM
CN1CCN(c2ncc(Sc3ccc(NC(=O)CN)cc3)c(OCc3ccccc3)n2)CC1 [compound 58, 2-Amino-N-(4-((4-(benzyloxy)-2-(4-methylpiperazin-1-yl)pyrimidin-5-yl)thio)phenyl)acetamide]	400 to 1000 nM
Cc1cc(C(N)=O)ccc1Sc1cnc(N2CCN(C)CC2)nc1OCc1ccccc1 [compound 73, 4-((4-(Benzyloxy)-2-(4-methylpiperazin-1-yl)pyrimidin-5-yl)thio)-3-methylbenzamide]	1000 to 1200 nM
CN1CCN(c2ncc(Sc3ccc(N)cc3)c(OCc3ccccc3)n2)CC1 [compound 10, 4-(4-(Benzyloxy)-2-(4-methylpiperazin-1-yl)pyrimidin-5-ylthio)aniline]	400 to 1000 nM
CN1CCN(c2ncc(Sc3ccc(C(N)=O)c(Cl)c3)c(OCc3ccc(F)c(N)c3)n2)CC1 [compound 118, 4-((4-((3-Amino-4-fluorobenzyl)oxy)-2-(4-methylpiperazin-1-yl)pyrimidin-5-yl)thio)-2-chlorobenzamide]	400 to 1000 nM
COc1cccc(COc2nc(N(C)CCN(C)C)ncc2Sc2ccc(C(N)=O)cc2)c1 [190g, 4-((2-((2-(Dimethylamino)ethyl)(methyl)amino)-4-((3-methoxybenzyl)oxy)pyrimidin-5-yl)thio)benzamide]	≥ 1200 nM
CN1CCN(c2ncc(Sc3ccc(N)nc3)c(OCc3ccc(F)c(C(F)(F)F)c3)n2)CC1 [compound 156, 5-((4-((4-Fluoro-3-(trifluoromethyl)benzyl)oxy)-2-(4-methylpiperazin-1-yl)pyrimidin-5-yl)thio)pyridin-2-amine]	200 to 400 nM
COc1cccc(COc2nc(N3CCN(C4(C)CC4)CC3)ncc2Sc2ccc(C(N)=O)cc2)c1 [compound 311, 4-((4-((3-Methoxybenzyl)oxy)-2-(4-(1-methylcyclopropyl)piperazin-1-yl)pyrimidin-5-yl)thio)benzamide]	≥ 1200 nM
CN1CCN(c2ncc(Sc3cccc(C=O)c3)c(OCc3ccccc3)n2)CC1 [compound 43, 3-((4-(Benzyloxy)-2-(4-methylpiperazin-1-yl)pyrimidin-5-yl)thio)benzaldehyde]	400 to 1000 nM
COc1cc(COc2nc(N3CC[C@@H](N)C3)ncc2Sc2ccc(C(N)=O)c(Cl)c2)ccc1F [compound 213, (R)-4-((2-(3-Aminopyrrolidin-1-yl)-4-((4-fluoro-3-methoxybenzyl)oxy)pyrimidin-5-yl)thio)-2-chlorobenzamide]	≥ 1200 nM

The next lines start with the values.

EC50	SMILES
< 200 nM	COc1cccc(COc2nc(N3CCN(C)C(=O)C3)ncc2Sc2ccc(C(N)=O)cc2)c1 [190t, 4-((4-((3-Methoxybenzyl)oxy)-2-(4-methyl-3-oxopiperazin-1-yl)pyrimidin-5-yl)thio) benzamide]
< 200 nM	COc1cc(COc2nc(N3CC[C@@H](N(C)C)C3)ncc2Sc2ccc(C(N)=O)c(Cl)c2)ccc1F [compound 212, (R)-2-Chloro-4-((2-(3-(dimethylamino)pyrrolidin-1-yl)-4-((4-fluoro-3-methoxybenzyl)oxy)pyrimidin-5-yl)thio)benzamide]
200 to 400 nM	CN(C)[C@@H]1CCN(c2ncc(Sc3ccc(C(N)=O)cc3)c(OCc3cccc(Cl)c3)n2)C1 [compound 365, (R)-4-((4-((3-Chlorobenzyl)oxy)-2-(3-(dimethylamino)pyrrolidin-1-yl)pyrimidin-5-yl)thio)benzamide]
200 to 400 nM	CN1CCN(c2ncc(Sc3ccc(C(N)=O)c(Cl)c3)c(OCc3ccc(F)c(C(F)(F)F)c3)n2)CC1 [compound 115, 2-Chloro-4-((4-((4-fluoro-3-(trifluoromethyl)benzyl)oxy)-2-(4-methylpiperazin-1-yl)pyrimidin-5-yl)thio)benzamide]
200 to 400 nM	CN1CCN(c2ncc(Sc3ccc(C(N)=O)cc3)c(OCc3ccoc3)n2)CC1 [100j, 4-((4-(Furan-3-ylmethoxy)-2-(4-methylpiperazin-1-yl)pyrimidin-5-yl)thio)benzamide]
200 to 400 nM	CN1CCN(c2ncc(Sc3ccc(C(N)=O)c(Br)c3)c(OCc3ccccc3)n2)CC1 [compound 77, 4-((4-(Benzyloxy)-2-(4-methylpiperazin-1-yl)pyrimidin-5-yl)thio)-2-bromobenzamide]
< 200 nM	C#CCN1CCN(c2ncc(Sc3ccc(C(N)=O)cc3)c(OCc3ccc(F)c(Cl)c3)n2)CC1 [compound 354, 4-((4-((3-Chloro-4-fluorobenzyl)oxy)-2-(4-(prop-2-yn-1-yl)piperazin-1-yl)pyrimidin-5-yl)thio)benzamide]
< 200 nM	CN(C)[C@@H]1CCN(c2ncc(Sc3ccc(N)nc3)c(OCc3cccc(Cl)c3)n2)C1 [compound 376, (R)-5-((4-((3-Chlorobenzyl)oxy)-2-(3-(dimethylamino)pyrrolidin-1-yl)pyrimidin-5-yl)thio)pyridin-2-amine]
< 200 nM	CN1CCN(c2ncc(Sc3ccc(C(N)=O)c(C(F)(F)F)c3)c(OCc3ccc(F)c(Cl)c3)n2)CC1 [compound 132, 4-((4-((3-Chloro-4-fluorobenzyl)oxy)-2-(4-methylpiperazin-1-yl)pyrimidin-5-yl)thio)-2-(trifluoromethyl)benzamide]
< 200 nM	COc1cccc(COc2nc(N3CCN(C4CC4)CC3)ncc2Sc2ccc(C(N)=O)cc2)c1 [190p, 4-((2-(4-Cyclopropylpiperazin-1-yl)-4-((3-methoxybenzyl)oxy)pyrimidin-5-yl)thio) benzamide]
